The target in this assay is T1, human capsaicin receptor (Homo sapiens, UniProt Q8NER1).
T1 construct: expression consrtuct encoding the full length human capsaicin receptor; expressed in transfected cells
As to the kind of experiment: Antagonist assay for Capsaicin receptor mediated calcium mobilization. The class given is cell-based. Conditions: read-out: EC50 (the source's name). Here is the method:
Calcium Mobilization Assay
Cells transfected with expression plasmids (as described in Example 10) and thereby expressing the human capsaicin receptor are seeded and grown to 70-90% confluency in FALCON black-walled, clear-bottomed 96-well plates (#3904, BECTON-DICKINSON, Franklin Lakes, N.J.) . The culture media are emptied from the 96 well plates and FLUO-3 AM calcium sensitive dye (Molecular Probes, Eugene, OR) is added to each well (dye solution: 1 mg FLUO-3 AM, 440 uL DMSO and 440 ul 20% pluronic acid in DMSO, diluted 1:4, 50 ul diluted solution per well). Plates are covered with aluminum foil and incubated at 37° C for 1-2 hours in an environment containing 5% CO2. After the incubation the dye is emptied from the plates, and the cells are washed once with Krebs-Ringer HEPES (KRH) buffer (25 mM HEPES, 5 mM KCl, 0.96 mM NaH2PO4, 1 MM MgSO4, 2 mM CaCl2, 5 mM glucose, 1 mM probenecid, pH 7.4), and resuspended in KRH buffer.
Agonist (e.g., olvanil, capsaicin, or RTX)-induced calcium mobilization is monitored using either FLUOROSKAN ASCENT (Labsystems, Franklin, Mass.) or FLIPR (fluorometric imaging plate reader system, Molecular Devices, Sunnyvale, Calif.) instruments. Similarly, varying concentrations of the antagonists ruthenium red or capsazepine are added to cells concurrently with agonist (e.g., 25-50 nM capsaicin). For agonist-induced calcium responses, data obtained between 30 and 60 seconds after agonist application are used to generate the EC50 values. […] software (Synergy Software, Reading, Pa.) was utilized to fit the data to the equation: […]
to determine the EC50 for the response. In this equation, y is the maximum fluorescence signal, x is the concentration of the agonist or antagonist, a is the Emax, b corresponds to the EC50 or IC50 value, and finally, c is the Hill coefficient.
Assay for Determination of Capsaicin Receptor Antagonist Effects
In order to measure the ability of a test compound to antagonize (inhibit) the response of cells expressing capsaicin receptors to capsaicin or other vanilloid agonist, the EC50 of capsaicin is first determined.
An additional 20 ul of KRH buffer and 1 ul DMSO is added to each well of cells, prepared as described above. 100 ul capsaicin in KRH buffer is automatically transferred by the FLIPR instrument to each well.
Test compounds are dissolved in DMSO, diluted in 20 ul KRH buffer so that the final concentration of test compounds in the assay well is between 1 uM and 5 uM, and added to cells prepared as described above. The 96 well plates containing prepared cells and test compounds are incubated in the dark, at room temperature for 0.5-6 hours. It is important that the incubation not continue beyond 6 hours. Just prior to determining the fluorescence response, 100 ul capsaicin in KRH buffer at twice the EC50 concentration determined from the concentration response curve is automatically added by the FLIPR instrument to each well of the 96 well plate for a final sample volume of 200 ul and a final capsaicin concentration equal to the EC50. The final concentration of test compounds in the assay wells is between 1 uM and 5 uM. […] Antagonists of the capsaicin receptor decrease this response by about 20%, preferably by about 50%, and most preferably by at least 80% as compared to matched control. The concentration of antagonist required to provide a 50% decrease is the EC50 for the antagonist (also referred to as the IC50).
(In general: Calcium assays in cells follow changes in intracellular calcium, usually with a dye or a luminescent sensor.)

Where two headings read alike, the source gives them in different places.

Consider 28 compounds from US20020132853A1, “Capsaicin receptor ligands” (priority 2000, published 2002).

T1 sequence (Q8NER1 whole entry): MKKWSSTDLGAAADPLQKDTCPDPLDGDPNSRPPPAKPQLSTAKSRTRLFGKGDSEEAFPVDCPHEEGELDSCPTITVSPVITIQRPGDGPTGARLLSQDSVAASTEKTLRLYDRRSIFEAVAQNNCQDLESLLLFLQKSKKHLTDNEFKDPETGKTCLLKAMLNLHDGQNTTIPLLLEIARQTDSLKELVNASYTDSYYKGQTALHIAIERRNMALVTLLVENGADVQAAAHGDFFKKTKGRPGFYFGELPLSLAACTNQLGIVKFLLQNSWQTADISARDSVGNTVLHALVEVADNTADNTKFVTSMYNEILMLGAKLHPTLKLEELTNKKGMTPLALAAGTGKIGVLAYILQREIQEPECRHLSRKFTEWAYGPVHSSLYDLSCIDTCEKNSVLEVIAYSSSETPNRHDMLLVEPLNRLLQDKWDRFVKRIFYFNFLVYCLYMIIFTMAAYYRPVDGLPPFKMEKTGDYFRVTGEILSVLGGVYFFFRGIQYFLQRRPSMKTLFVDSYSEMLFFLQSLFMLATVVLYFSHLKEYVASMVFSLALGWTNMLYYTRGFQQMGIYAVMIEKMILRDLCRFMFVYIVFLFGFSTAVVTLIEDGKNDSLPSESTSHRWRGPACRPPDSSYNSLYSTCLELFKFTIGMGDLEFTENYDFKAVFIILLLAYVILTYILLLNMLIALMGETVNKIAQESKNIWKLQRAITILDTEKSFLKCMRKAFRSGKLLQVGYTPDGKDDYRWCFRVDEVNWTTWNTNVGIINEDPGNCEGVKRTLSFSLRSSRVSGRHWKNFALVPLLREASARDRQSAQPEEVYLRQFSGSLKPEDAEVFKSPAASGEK

Take `C[C@@H]1CN(c2ncccc2Cl)CCN1C(=O)Nc1ccc(C2(O)CCOCC2)cc1` [Compound 50, (2R)-4-(3-chloropyridin-2-yl)-N-[4-(4-hydroxytetrahydro-2H-pyran-4-yl)phenyl]-2-methylpiperazine-1-carboxamide]: the IC50 (Table III) is < 1000 nM.

`C[C@@H]1CN(c2ncccc2C(F)(F)F)CCN1C(=O)Nc1ccc(C2(O)CCOCC2)cc1` [Compound 51, (2R)-N-[4-(4-hydroxytetrahydro-2H-pyran-4-yl)phenyl]-2-methyl-4-[3-(trifluoromethyl)pyridin-2-yl]piperazine-1-carboxamide]: the IC50 (Table III) was < 1000 nM.

Consider `Cc1nc(-c2ccc(NC(=O)N3CCN(c4ncccc4Cl)C[C@H]3C)cc2)cs1` [Compound 52, (2R)-4-(3-chloropyridin-2-yl)-2-methyl-N-[4-(2-methyl-1,3-thiazol-4-yl)phenyl]piperazine-1-carboxamide], for which, for the setting “Table III”, the IC50 is < 1000 nM.

For `CCc1nc(-c2ccc(NC(=O)N3CCN(c4ncccc4Cl)C[C@H]3C)cc2)cs1` [Compound 53, (2R)-4-(3-chloropyridin-2-yl)-N-[4-(2-ethyl-1,3-thiazol-4-yl)phenyl]-2-methylpiperazine-1-carboxamide], the IC50 (Table III) was < 1000 nM.

Take `COCC(C)(C)c1ccc(NC(=O)N2CCN(c3ncccc3Cl)C[C@H]2C)cc1` [Compound 54, (2R)-4-(3-chloropyridin-2-yl)-N-[4-(2-methoxy-1,1-dimethylethyl)phenyl]-2-methylpiperazine-1-carboxamide]: the IC50 (Table III) is < 1000 nM.

Take `COCC(C)(C)c1ccc(NC(=O)N2CCN(c3ncccc3C(F)(F)F)C[C@H]2C)cc1` [Compound 55, (2R)-N-[4-(2-methoxy-1,1-dimethylethyl)phenyl]-2-methyl-4-[3-(trifluoromethyl)pyridin-2-yl]piperazine-1-carboxamide]: the IC50 (Table III) was < 1000 nM.

As for `C[C@@H]1CN(c2ncccc2Cl)CCN1C(=O)Nc1ccc(C(C)(C)C#N)cc1` [Compound 56, (2R)-4-(3-chloropyridin-2-yl)-N-[4-(1-cyano-1-methylethyl)phenyl]-2-methylpiperazine-1-carboxamide], the IC50 (Table III) is < 1000 nM.

On to `C[C@@H]1CN(c2ncccc2C(F)(F)F)CCN1C(=O)Nc1ccc(C(C)(C)C#N)cc1` [Compound 57, (2R)-N-[4-(1-cyano-1-methylethyl)phenyl]-2-methyl-4-[3-(trifluoromethyl)pyridin-2-yl]piperazine-1-carboxamide], for which, for the setting “Table III”, the IC50 was < 1000 nM.

As to `CCC1CN(c2ncccc2Cl)CCN1C(=O)Nc1ccc(C(C)(C)C)cc1` (stereo not shown) [Compound 58, N-(4-tert-butylphenyl)-4-(3-chloropyridin-2-yl)-2-ethylpiperazine-1-carboxamide], the IC50 (Table III) is < 1000 nM.

With `CCC1CN(c2ncccc2Cl)CCN1C(=O)Nc1ccc(C(F)(F)F)cc1` (stereo not shown) [Compound 59, 4-(3-chloropyridin-2-yl)-2-ethyl-N-[4-(trifluoromethyl)phenyl]piperazine-1-carboxamide], the IC50 (Table III) was < 1000 nM.

In the case of `CCC1CN(c2ncccc2Cl)CCN1C(=O)Nc1ccc(C(C)C)cc1` (stereo not shown) [Compound 60, 4-(3-chloropyridin-2-yl)-2-ethyl-N-[4-isopropylphenyl)piperazine-1-carboxamide], the IC50 (Table III) was < 1000 nM.

With `CCC1CN(c2ncccc2C(F)(F)F)CCN1C(=O)Nc1ccc(C(C)(C)C)cc1` (stereo not shown) [Compound 61, N-(4-tert-butylphenyl)-2-ethyl-4-[3-(trifluoromethyl)pyridin-2-yl]piperazine-1-carboxamide], the IC50 (Table III) is < 1000 nM.

`CCC1CN(c2ncccc2C(F)(F)F)CCN1C(=O)Nc1ccc(C(F)(F)F)cc1` (stereo not shown) [Compound 62, 2-ethyl-N-[4-(trifluoromethyl)phenyl]-4-[3-(trifluoromethyl)pyridin-2-yl]piperazine-1-carboxamide]: the IC50 (Table III) is < 1000 nM.

For `CCC1CN(c2ncccc2C(F)(F)F)CCN1C(=O)Nc1ccc(C(C)C)cc1` (stereo not shown) [Compound 63, 2-ethyl-N-(4-isopropylphenyl)-4-[3-(trifluoromethyl)pyridin-2-yl]piperazine-1-carboxamide], the IC50 (Table III) is < 1000 nM.

Regarding `CC(C)(C)c1ccc(NC(=O)N2CCN(c3ncccc3Cl)CC2C(C)(C)C)cc1` (stereo not shown) [Compound 64, 2-tert-butyl-N-(4-tert-butylphenyl)-4-(3-chloropyridin-2-yl)piperazine-1-carboxamide], the IC50 (Table III) was < 1000 nM.

On to `CC(C)(C)C1CN(c2ncccc2C(F)(F)F)CCN1C(=O)Nc1ccc(C(F)(F)F)cc1` (stereo not shown) [Compound 68, 2-tert-butyl-N-[4-(trifluoromethyl)phenyl]-4-[3-(trifluoromethyl)pyridin-2-yl]piperazine-1-carboxamide], for which the IC50 (Table III) was < 1000 nM.

`CC(C)C1CN(c2ncccc2Cl)CCN1C(=O)Nc1ccc(C(C)(C)C)cc1` (stereo not shown) [Compound 69, N-(4-tert-butylphenyl)-4-(3-chloropyridin-2-yl)-2-isopropylpiperazine-1-carboxamide]: the IC50 (Table III) was < 1000 nM.

As to `CC(C)C1CN(c2ncccc2C(F)(F)F)CCN1C(=O)Nc1ccc(C(C)(C)C)cc1` (stereo not shown) [Compound 72, N-(4-tert-butylphenyl)-2-isopropylk-4-[3-(trifluoromethyl)pyridin-2-yl]piperazine-1-carboxamide], for the setting “Table III”, the IC50 is < 1000 nM.

`CC(C)C1CN(c2ncccc2C(F)(F)F)CCN1C(=O)Nc1ccc(C(F)(F)F)cc1` (stereo not shown) [Compound 73, 2-isopropyl-N-[4-(trifluoromethyl)phenyl]-4-[3-(trifluoromethyl)pyridin-2-yl]piperazine-1-carboxamide]: for the setting “Table III”, the IC50 is < 1000 nM.

Regarding `CC(C)c1ccc(NC(=O)N2CCN(c3ncccc3C(F)(F)F)CC2C(C)C)cc1` (stereo not shown) [Compound 74, 2-isopropyl-N-(4-isopropylphenyl)-4-[3-(trifluoromethyl)pyridin-2-yl]piperazine-1-carboxamide], under “Table III”, the IC50 is < 1000 nM.

Turning to `C[C@@H]1CN(c2ncccc2F)CCN1C(=O)Nc1ccc(C(F)(F)F)cc1` [Compound 75, (2R)-4-(3-fluoropyridin-2-yl)-2-methyl-N-[4-(trifluoromethyl)phenyl]piperazine-1-carboxamide], the IC50 (Table III) is < 1000 nM.

As for `CC(C)c1ccc(NC(=O)N2CCN(c3ncccc3F)C[C@H]2C)cc1` [Compound 77, (2R)-4-(3-fluoropyridin-2-yl)-N-(4-isopropylphenyl)-2-methylpiperazine-1-carboxamide], the IC50 (Table III) is < 1000 nM.

As to `C[C@@H]1CN(c2ncccc2F)CCN1C(=O)Nc1ccc(C2CCCCC2)cc1` [Compound 78, (2R)-N-(4-cyclohexylphenyl)-4-(3-fluoropyridin-2-yl)-2-methylpiperazine-1-carboxamide], where the note is “Table III”, the IC50 is < 1000 nM.

Regarding `C[C@@H]1CN(c2ncccc2F)CCN1C(=O)Nc1ccc(C2CCCC2)cc1` [Compound 79, (2R)-N-(4-cyclopentylphenyl)-4-(3-fluoropyridin-2-yl)-2-methylpiperazine-1-carboxamide], the IC50 (Table III) is < 1000 nM.

Take `C[C@@H]1CN(c2ncccc2C#N)CCN1C(=O)Nc1ccc(C(C)(C)C)cc1` [Compound 82, (2R)-N-(4-tert-butylphenyl)-4-(3-cyanopyridin-2-yl)-2-methylpiperazine-1-carboxamide]: the IC50 (Table III) is < 1000 nM.

Turning to `C[C@@H]1CN(c2ncccc2C#N)CCN1C(=O)Nc1ccc(C(F)(F)F)cc1` [Compound 83, (2R)-4-(3-cyanopyridin-2-yl)-2-methyl-N-[4-(trifluoromethyl)phenyl]piperazine-1-carboxamide], the IC50 (Table III) was < 1000 nM.

Turning to `Cc1cccc(N2CCN(C(=O)Nc3ccc(C(C)(C)C)cc3)[C@H](C)C2)n1` [Compound 86, (2R)-N-(4-tert-butylphenyl)-2-methyl-4-(6-methylpyridin-2-yl)piperazine-1-carboxamide], the IC50 (Table III) was < 1000 nM.

As for `O=C(Nc1ccc(C(F)(F)F)cn1)N1CCN(c2ncccc2Cl)CC1` [Compound 93, 4-(3-chloropyridin-2-yl)-N[5-(trifluoromethyl)pyridin-2-yl]piperazine-1-carboxamide], the IC50 (Table IV) was < 1000 nM.
